{
  "source": "patent US20240384268A1",
  "about": "“Oligonucleotides” (Hudson Institute of Medical Research, priority 2021, published 2024)",
  "note": "In the oligonucleotide strings, read from the 5' end, every base follows the letter of its sugar. An asterisk marks phosphorothioate; unmarked linkages are phosphodiester. Other units and linkages are bracketed, terminal groups are in braces. A string of capitals states the bases alone. d = 2'-deoxy (DNA); m = 2'-O-methyl",
  "data": [
    {"molecular_target": "cGAS (Homo sapiens, UniProt Q8N884)", "sequence (Q8N884 whole entry)": "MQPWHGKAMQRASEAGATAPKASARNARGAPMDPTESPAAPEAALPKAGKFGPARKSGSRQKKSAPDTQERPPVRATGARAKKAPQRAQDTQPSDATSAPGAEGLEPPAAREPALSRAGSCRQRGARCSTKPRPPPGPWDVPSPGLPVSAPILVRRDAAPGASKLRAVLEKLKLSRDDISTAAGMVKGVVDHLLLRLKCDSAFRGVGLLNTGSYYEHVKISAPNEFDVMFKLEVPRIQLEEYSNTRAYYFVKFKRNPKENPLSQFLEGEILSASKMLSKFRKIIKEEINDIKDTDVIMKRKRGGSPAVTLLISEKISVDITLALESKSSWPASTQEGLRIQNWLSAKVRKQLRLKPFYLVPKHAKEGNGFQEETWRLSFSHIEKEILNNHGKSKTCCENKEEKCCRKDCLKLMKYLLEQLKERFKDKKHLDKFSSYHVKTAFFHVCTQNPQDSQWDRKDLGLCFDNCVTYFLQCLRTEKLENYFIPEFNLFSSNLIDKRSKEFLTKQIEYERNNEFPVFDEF", "test": "ISD70-driven IP-10 (and IFN-β) production in THP-1 cells, ELISA", "type": "cell-based", "design": "endogenous in cells; host or cells: THP-1 (undifferentiated)", "details": "ASO 100 nM; relative to ISD70 only, given as fraction", "values": [
      {"substance": "TCTTGGCTTCGTGGAG (antisense; LNA-modified, pattern not given here) [MB21D1-521 LNA V1]", "cGAS 100 nM (averaged IP-10 level relative to ISD70 condition)": 0.693},
      {"substance": "TGACAAAGATTCACTG (antisense; LNA-modified, pattern not given here) [HPRT LNA-1353 KL]", "cGAS 100 nM (averaged IP-10 level relative to ISD70 condition)": 0.887},
      {"substance": "TGACTGTCTTGAGGGT (antisense; LNA-modified, pattern not given here) [MB21D1-1483 LNA KL]", "cGAS 100 nM (averaged IP-10 level relative to ISD70 condition)": 0.747},
      {"substance": "TGGTCCACAACCCCTT (antisense; LNA-modified, pattern not given here) [MB21D1-697 LNA V1]", "cGAS 100 nM (averaged IP-10 level relative to ISD70 condition)": 0.935},
      {"substance": "TGGTGGCCACCCATCT (antisense; LNA-modified, pattern not given here) [CTNN2B-2479 LNA V1]", "cGAS 100 nM (averaged IP-10 level relative to ISD70 condition)": 0.830},
      {"substance": "TGTCCTTGCACGTGGC (antisense; LNA-modified, pattern not given here) [EGFR-1016 LNA V1]", "cGAS 100 nM (averaged IP-10 level relative to ISD70 condition)": 0.678},
      {"substance": "TGTCTGGAAGCTTCCT (antisense; LNA-modified, pattern not given here) [CTNN2B-808 LNA V1]", "cGAS 100 nM (averaged IP-10 level relative to ISD70 condition)": 0.617},
      {"substance": "TTCAGGCGCTGCCTTG (antisense; LNA-modified, pattern not given here) [CAMSAP1-2709 LNA V1]", "cGAS 100 nM (averaged IP-10 level relative to ISD70 condition)": 0.709}
    ]},
    {"molecular_target": "cGAS (Homo sapiens, UniProt Q8N884)", "test": "ISD70-driven IP-10 (and IFN-β) production in THP-1 cells, ELISA", "type": "cell-based", "design": "endogenous in cells; host or cells: THP-1 (undifferentiated)", "details": "THP-1; 100 nM ASO overnight, then ISD70 2.5 μg/ml 7-8 h; percentage of ISD70 only", "units": {"cGAS-100 nM: averaged IP-10 levels relative to ISD70": "%"}, "values": [
      {"substance": "mA*mA*mA*mG*mC*A*G*T*C*T*C*C*A*T*G*mU*mC*mC*mC*mA (mA*mA*mA*mG*mC*dA*dG*dT*dC*dT*dC*dC*dA*dT*dG*mU*mC*mC*mC*mA; antisense) [[CDKN2B-AS1]2237]", "cGAS-100 nM: averaged IP-10 levels relative to ISD70": 70.95},
      {"substance": "mA*mA*mG*mC*mA*G*T*C*T*C*C*A*T*G*T*mC*mC*mC*mA*mG (mA*mA*mG*mC*mA*dG*dT*dC*dT*dC*dC*dA*dT*dG*dT*mC*mC*mC*mA*mG; antisense) [[CDKN2B-AS1]2236]", "cGAS-100 nM: averaged IP-10 levels relative to ISD70": 107.34},
      {"substance": "mA*mG*mC*mA*mG*T*C*T*C*C*A*T*G*T*C*mC*mC*mA*mG*mG (AGCAGTCTCCATGTCCCAGG; antisense; sugars from the 5' end m5 d10 m5, all phosphorothioate, methylation of C not given here) [[CDKN2B-AS1]2235]", "cGAS-100 nM: averaged IP-10 levels relative to ISD70": 28.75},
      {"substance": "mA*mG*mU*mC*mU*C*C*A*T*G*T*C*C*C*A*mG*mG*mC*mC*mU (mA*mG*mU*mC*mU*dC*dC*dA*dT*dG*dT*dC*dC*dC*dA*mG*mG*mC*mC*mU; antisense) [[CDKN2B-AS1]2232]", "cGAS-100 nM: averaged IP-10 levels relative to ISD70": 88.13},
      {"substance": "mA*mG*mU*mG*mG*C*A*C*A*T*A*C*C*A*C*mA*mC*mC*mC*mU (AGUGGCACATACCACACCCU; antisense; sugars from the 5' end m5 d10 m5, all phosphorothioate, methylation of C not given here) [[CDKN2B-AS1]495]", "cGAS-100 nM: averaged IP-10 levels relative to ISD70": 59.69},
      {"substance": "mA*mU*mU*mU*mC*C*A*C*A*T*G*C*C*C*A*mG*mU*mG*mU*mU (AUUUCCACATGCCCAGUGUU; antisense; sugars from the 5' end m5 d10 m5, all phosphorothioate, methylation of C not given here) [[CDKN2B-AS1]626]", "cGAS-100 nM: averaged IP-10 levels relative to ISD70": 52.58},
      {"substance": "mC*mA*mG*mU*mC*T*C*C*A*T*G*T*C*C*C*mA*mG*mG*mC*mC (mC*mA*mG*mU*mC*dT*dC*dC*dA*dT*dG*dT*dC*dC*dC*mA*mG*mG*mC*mC; antisense) [[CDKN2B-AS1]2233]", "cGAS-100 nM: averaged IP-10 levels relative to ISD70": 75.92},
      {"substance": "mC*mA*mG*mU*mG*T*T*T*T*T*A*A*T*T*T*mU*mG*mU*mA*mG (mC*mA*mG*mU*mG*dT*dT*dT*dT*dT*dA*dA*dT*dT*dT*mU*mG*mU*mA*mG; antisense) [[CDKN2B-AS1]613]", "cGAS-100 nM: averaged IP-10 levels relative to ISD70": 60.94},
      {"substance": "mC*mU*mU*mG*mU*G*A*A*A*A*G*A*T*T*A*mU*mC*mU*mU*mC (mC*mU*mU*mG*mU*dG*dA*dA*dA*dA*dG*dA*dT*dT*dA*mU*mC*mU*mU*mC) [[CDKN2B-AS1]2139]", "cGAS-100 nM: averaged IP-10 levels relative to ISD70": 33.75},
      {"substance": "mG*mC*mA*mG*mU*C*T*C*C*A*T*G*T*C*C*mC*mA*mG*mG*mC (GCAGUCTCCATGTCCCAGGC; antisense; sugars from the 5' end m5 d10 m5, all phosphorothioate, methylation of C not given here) [[CDKN2B-AS1]2234]", "cGAS-100 nM: averaged IP-10 levels relative to ISD70": 10.02},
      {"substance": "mG*mU*mC*mU*mC*C*A*T*G*T*C*C*C*A*G*mG*mC*mC*mU*mC (mG*mU*mC*mU*mC*dC*dA*dT*dG*dT*dC*dC*dC*dA*dG*mG*mC*mC*mU*mC) [[CDKN2B;AS1]2231]", "cGAS-100 nM: averaged IP-10 levels relative to ISD70": 84.16},
      {"substance": "mG*mU*mG*mU*mC*C*T*T*C*A*T*G*C*T*T*mU*mG*mG*mA*mU (GUGUCCTTCATGCTTUGGAU; antisense; sugars from the 5' end m5 d10 m5, all phosphorothioate, methylation of C not given here) [[CDKN2B-AS1]1415]", "cGAS-100 nM: averaged IP-10 levels relative to ISD70": 58.18},
      {"substance": "mG*mU*mG*mU*mU*T*T*T*A*A*T*T*T*T*G*mU*mA*mG*mA*mG (mG*mU*mG*mU*mU*dT*dT*dT*dA*dA*dT*dT*dT*dT*dG*mU*mA*mG*mA*mG) [[CDKN2B-AS1]611]", "cGAS-100 nM: averaged IP-10 levels relative to ISD70": 66.24},
      {"substance": "mU*mA*mU*mU*mU*C*C*A*C*A*T*G*C*C*C*mA*mG*mU*mG*mU (mU*mA*mU*mU*mU*dC*dC*dA*dC*dA*dT*dG*dC*dC*dC*mA*mG*mU*mG*mU; antisense) [[CDKN2B-AS1]627]", "cGAS-100 nM: averaged IP-10 levels relative to ISD70": 80.99}
    ]},
    {"molecular_target": "cGAS (Homo sapiens, UniProt Q8N884)", "test": "ISD70-driven IP-10 (and IFN-β) production in THP-1 cells, ELISA", "type": "cell-based", "design": "endogenous in cells; host or cells: THP-1 (undifferentiated)", "details": "THP-1; 2′OMe or PS oligos, 100-250 nM, pre-treatment as in figure legends; ISD70 2.5 μg/ml", "values": [
      {"substance": "mG*mC*mA*mG*mU*C*T*C*C*A*T*G*T*C*C*mC*mA*mG*mG*mC (GCAGUCTCCATGTCCCAGGC; antisense; sugars from the 5' end m5 d10 m5, all phosphorothioate, methylation of C not given here) [[CDKN2B-AS1]2234]", "inhibition of ISD70-driven IP-10 production (in words)": "robustly inhibited ISD70-dependent IP-10 production"}
    ]}
  ]
}
